Assay results published in US9072730B2, “Method of improving cognitive functions in individuals with down syndrome and/or alzheimer's disease” (The Board of Trustees of the Leland Stanford Junior …, priority 2009, dated 2015).
“Also recorded” adds a separate entry of the source.

What was measured:
acute hippocampal slices = assay: Evoked field potentials in acute hippocampal slices (dentate gyrus); set-up: species or system mouse
Protocol: Three and 6-month-old 2N and Ts65Dn mice were anesthetized with isoflurane before decapitation. The brain was quickly removed and immersed for 2-3 min in ice-cold artificial CSF (ACSF) [containing (in mM): 119 NaCl, 2.5 Kcl, 2.5 CaCl2, 1.3 MgSO4, 1 NaH2PO4, 26 NaHCO3, and 10 glucose], osmolarity 310, continuously bubbled with 95% 02 and 5% CO2, pH 7.4. The HC was extracted and cut in ice-cold ACSF with a vibratome (Leica 1000; Leica, Nussloch, Germany) into 350-μm-thick transverse slices, which were allowed to recover in oxygenated ACSF at 32° C. for 30 min, and then at room temperature for an additional 1-10 hr before experimental recordings. Slices were transferred into the recording chamber and superfused with ACSF at a constant rate of 2.5 ml/min at a temperature of 32° C. Recording electrodes were made of borosilicate glass capillaries (1B150F, World Precision Instruments, Sarasota, Fla.) and were filled with 2M NaCl (resistance […]). Mono polar stimulating electrode was maid of Pt/Ir wires with diameter 25.4 μm (PTT0110, World Precision Instruments, Sarasota, Fla.) and had 100-μm-long exposed tip. The stimulating electrode was inserted under visual control perpendicular to the slice surface into the middle molecular layer (MML), and the recording electrode into the granule cell layer of the DG upper blade. The distance between the electrodes was 250-300 μm. Testing stimuli evoked field responses with population spike amplitudes 65-75% of maximum. The amplitude of the population spike was measured as follows: a line was drawn at the base of the population spike connecting the first and second peaks of the field response, a second line was drawn at the peak of the population spike (i.e., at the peak of the downward deflection), and at the peak of the spike, a line was drawn vertically between these two lines, thus giving the amplitude of the population spike. The magnitude of the fEPSP was measured as the initial slope of the linear part of the fEPSP, which occurred 0.1-1 ms after the presynaptic volley. […]

[1] = Norepinephrine and L-DOPS determination in tissue by UV-HPLC; format: in vivo, mouse
Protocol: Mice were deeply anesthetized using sodium pentobarbital (200 mg/kg i.p.) and brains were extracted immediately. The right hippocampal region dissected out on ice, weighed, and frozen shortly after. The rest of the right hemisphere was also weighed and collected. For homogenization, 1 ml of ice-cold 0.05 M phosphoric acid (Sigma) with 10 μl of […] of 3,4-Dihydrxybenzylamine hydrobromide (DHBA; Sigma) used as an internal standard. The tissue samples were sonicated for 3 seconds on ice. The resulting homogenates were centrifuged at 15,000 g for 15 minutes at 4° C. The resulting supernatant was transferred to a conical tube containing 1 ml of 3M tris (pH: 8.6) with 90 mg acid-washed aluminum oxide (Sigma). The mixture was rotated at 4° C. overnight. The alumina was centrifuged for 10 seconds, and washed briefly with 6 mM tris (pH: 8.6) and 3 changes of water (HPLC grade). After final centrifugation, the resulting precipitate was mixed with 1.8 ml of 0.05M H3PO4 (Sigma, puriss>99%) for 30 minutes at 4° C. The solution was filtered with a 0.2 μm filter and used for UV-based HPLC. 4.5 months-old (N=4 pairs of 2N and Ts65Dn) and 18 months (2N; N=8 and Ts65Dn; N=6) were used for this study.
A UV-HPLC machine (Varian, Chicago) equipped with an auto sampler and 2 pumps was used for this study. The machine was connected to a Varian column (Pursuit PFP, 150 mm×4.6 mm, 5 μm, A3050150×046) optimized for catecholamine measurements in aqueous conditions. The mobile phase was consisted of 60% 0.1M citric acid (Sigma) and 40% 0.1M Na2HPO4 both in 0.3 mM HPLC-grade sodium octyl sulfate salt (Sigma) (7). The mobile phase was degassed using 0.2 μm filter and refreshed every week. The flow rate was set at 1.0 ml/min at room temperature and the detection was performed at 270 nm. To achieve maximum performance, the mobile phase was pumped at 0.1 ml/min flow the night before the experiment. The column was washed thoroughly with 50% methanol after each experiment. To calculate the amounts of catecholamines, the height of the peak generated by DHBA, NE, and L-DOPS were measured using Variant software. […]

Ts65Dn mice [2] = assay: Nesting behavior analysis; format: in vivo, mouse
Protocol: The nesting experiment was performed using 10 pairs of 6-month-old male Ts65Dn (CD=10, CD+L-DOPS=10) and 2N (CD=10, CD+L-DOPS=10) mice. The nesting behavior was analyzed in three different periods (sham, drug and no treatment): Each mouse was placed in individual mouse cages for 4 days. On day 5, each mouse was injected subcutaneously at 1 PM with 50 μl/g of (2.5 mg/ml) carbidopa (Sigma) and returned to their individual cages. The next day, mice were injected the same amount of carbidopa as the day before at 1 PM. At 6 PM, the mice were transferred to a rat cage and one nestlet was placed in each cage. Next morning, the nesting was scored by three investigators blind to the genotype. This was followed by weighing the remaining nestlets. Following the sham experiment, mice were returned to their individual mouse cages without any nestlets for 6 days. On day 7, the mice were injected subcutaneously (50 μl/g) of a combination of (20 mg/ml) L-DOPS and carbidopa (2.5 mg/ml) at 1 PM and were returned to their individual mouse cages. Next day the injection was repeated at 1 PM and at 6 PM the mice were transferred to clean rat cage with one nestlet. The quality and quantity of nesting was scored the morning after. The mice were kept in individual cages for two weeks to minimize the effects of L-DOPS treatment on nesting. […] The quality and quantity of nesting was scored the morning after.

[3] = based on the literature; cited from earlier work
Ts65Dn mice [4] = assay: Contextual and tone-cued fear conditioning test; format: in vivo, mouse
Protocol: Contextual and tone-cued fear conditioning tests were performed using the Fear Conditioning Video Tracking System (Med-Associates Inc., St. Albans, Vt.). To reduce the stress, each mouse was handled for 5 days. After that, the mice underwent three days of Training day, Tone-Cued in novel context testing day, and Contextual testing day. In the first day, mice went through the Training session. Prior to conditioning, each mice had 3 min to explore the Test Chamber (baseline activity and then they received five tone-shock pairings). The shock (0.5 mA, 50 Hz, 2 sec) delivered after 18 sec from the end of the tone (70 dB, 2 kHz, 20 sec). Therefore, an empty trace interval interposed between the tone and the shock in each conditional stimulus-unconditional stimulus pairing. On the second day (Tone-cued testing day), mice were placed in the novel context (new olfactory and visual cues) for 3 min and subsequently were presented three tone presentations (same as the Training Day) without any shocks. On the last day of the experiment, mice were placed in the context similar to the Training Day for 5 min without any tones or shocks. The effect of L-DOPS on fear conditioning was investigated by treating Ts65Dn mice and their controls 5 hours before the start of each test. The treated mice underwent three days of Training day, Cued testing day and Contextual testing day. L-DOPS was diluted (20 mg/ml) in 0.2M HCL containing 2 mg/ml ascorbic acid. The pH was neutralized with 10M NAOH just before the injection. To counter the peripheral effects of L-DOPS, S-(−) carbidopa was used. Carbidopa was diluted in the same solution (2.5 mg/ml) as L-DOPS. Two groups (10 pairs each) of 5-6-month-old male Ts65Dn and 2N mice were either injected with carbidopa (2.5 mg/ml) or a combination of 20 mg/ml L-DOPS and 2.5 mg/ml carbidopa (50 μl/g subcutaneously) five hours before the start in all 3 days of the experiment. Six-months-old 2N (CD=13, CD+L-DOpS=11) and Ts65Dn (CD=10, CD+L-DOPS=9) mice were used for this study. The effect of β1-partial agonist (xamoterol) on Ts65Dn mice and their controls […]. Xamoterol hemifumarate (Tocris Bioscience, Ellisville, Mich.) was freshly diluted in saline. Two groups of 9-month-old (19 2N and 15 Ts65Dn) mice were subcutaneously injected either with xamoterol (3 mg/kg) or saline (10 ml/kg) exactly […] before all 3 days of fear conditioning test. Nine-months-old 2N (saline=4, xamoterol=8), and Ts65Dn (saline=4, xamoterol=6) mice were used for this study. The data tested using one-way analysis of variance (ANOVA) between the genotypes. The significance of genotype and treatment effects was confirmed by a non-parametric Mann-Whitney U-tests.

[5] = subcutaneous administration; cited from earlier work

Question: Which results are given for `CC(C)NCC(O)c1ccc(O)c(O)c1` (stereo not drawn) [ISO]?
Answer: effect on slope of fEPSPs, Ts65Dn versus 2N (acute hippocampal slices; 6-month-old mice, stimulation of middle molecular layer, recording in granule cell layer): stronger effects on slope of fEPSPs in Ts65Dn than 2N mice; recorded response 30 min after application, Ts65Dn versus 2N (acute hippocampal slices; ISO 10 μM, 10 min, slices of 6-month old Ts65Dn and age-matched 2N): much stronger response in Ts65Dn than 2N mouse; change in population spike amplitude of fEPSPs (acute hippocampal slices; ISO 10 μM, 3- and 6-months-old 2N and Ts65Dn mice): significant increase in population spike amplitude; duration of enhancement of population spike amplitude (acute hippocampal slices; ISO 10 μM, 3-month-old 2N mice): at least 30 min; duration of increase of population spike amplitude (acute hippocampal slices; ISO 10 μM, 6 months old mice): > 1 h; slope and amplitude of excitatory postsynaptic potentials (EPSPs) (acute hippocampal slices; slices at age 3 months and 6 months, 2N and Ts65Dn mice): increase in both the slope and amplitude; EPSP responses in Ts65Dn slices compared with 2N (acute hippocampal slices; slices at age 6 months): consistently more robust

Question: For `N[C@H](C(=O)O)[C@H](O)c1ccc(O)c(O)c1` [L-DOPS, L-threo-3,4-dihydroxyphenylserine], which “NE levels in the HC of Ts65Dn mice relative to 2N mice” value ([1]; after L-DOPS 1 mg/g with carbidopa 0.125 mg/g) is on record?
Answer: 96%

Question: What about the “L-DOPS levels in tissues” value ([1]; six hours after administration, 2N and Ts65Dn mice, L-DOPS 1 mg/g with carbidopa 0.125 mg/g) of the same compound?
Answer: present in all tissues, including brain

Question: And the “L-DOPS tissue levels, difference between genotypes” value ([1]; six hours after administration, 2N vs Ts65Dn, p=0.4894)?
Answer: no difference between genotypes

Question: What about the nesting behavior (Ts65Dn mice [2]; drug period: L-DOPS 20 mg/ml + carbidopa 2.5 mg/ml, 50 μl/g s.c., p=0.0245) of the same compound?
Answer: improved nesting; also recorded: significant improvement in the nesting behavior

Question: And the “nesting behavior after cessation of treatment” value (Ts65Dn mice [2]; no treatment (washout) period of two weeks, p=0.0121)?
Answer: again showed poor nesting behavior; also recorded: vanished 2 weeks later

Question: What about the “dose used safely in humans” value [3] of the same compound?
Answer: up to 1 gram per day

Question: What about the “contextual memory / contextual learning (freezing on contextual day)” value (Ts65Dn mice [4]; 6-month-old Ts65Dn mice, 20 mg/ml L-DOPS + 2.5 mg/ml carbidopa, 50 μl/g s.c., 5 hours before each test, control carbidopa alone) of the same compound?
Answer: significant improvement in contextual memory; also recorded: found to restore contextual learning; also recorded: able to alleviate cognitive failure; also recorded: contextual learning failure was reversed; also recorded: acted to restore contextual learning

Question: What about the “difference in freezing between 2N and Ts65Dn mice in contextual test” value (Ts65Dn mice [4]; L-DOPS + carbidopa treated 2N vs Ts65Dn, One-way ANOVA p=0.5247) of the same compound?
Answer: restored fully the difference in freezing; also recorded: no significant difference between the two groups

Question: What about the “freezing measured on a minute-by-minute basis in contextual test” value (Ts65Dn mice [4]; L-DOPS + carbidopa treated Ts65Dn mice) of the same compound?
Answer: increased freezing following the first minute

Question: And the “reduction of the deficiency in Ts65Dn mice” value (Ts65Dn mice [4]; L-DOPS treatment versus no treatment)?
Answer: 80%

Question: What about the “how much less Ts65Dn mice remembered than their controls after treatment” value (Ts65Dn mice [4]; after treatment with L-DOPS, without treatment 44% less) of the same compound?
Answer: 8%

Question: And the “time to maximum brain NE levels” value [5]?
Answer: ≤ 5 h

Question: With `O=C(NCCNCC(O)COc1ccc(O)cc1)N1CCOCC1` (stereo not drawn) [xamoterol] as the compound, how does the “contextual learning / contextual discrimination (freezing on contextual day)” value (Ts65Dn mice [4]; 9-month-old Ts65Dn mice, xamoterol 3 mg/kg s.c. 1 hour before each test, control saline) read?
Answer: restored failed contextual learning; also recorded: found to restore contextual learning; also recorded: contextual learning failure was reversed; also recorded: acted to restore contextual learning; also recorded: significant improvement; also recorded: significant restoration of contextual discrimination

Question: What about the “difference between 2N and Ts65Dn mice in percent of freezing on contextual day” value (Ts65Dn mice [4]; xamoterol treated 2N vs Ts65Dn, ANOVA F=0.392, p=0.844) of the same compound?
Answer: no longer any differences were found
